Measured values published in patent US5459129A, “Condensed heterocyclic compounds, their production and use” (Takeda Chemical Industries, Ltd., priority 1990, dated 1995).

Key:
[1] = target: T1, thymidylate acid synthase (TS) (Mus musculus, UniProt P07607); test: Determination of TS inhibiting action; format: biochemical; conditions: roughly refined TS fraction from Meth A fibrosarcoma cells; [3H]dUMP, 1 hour at 37° C.; read-out: IC50 TS (concentration required for 50% inhibiting the TS activity)
T1 construct: endogenous in cells; host or cells: Meth A fibrosarcoma cells (sonicated; 100,000 x g supernatant)
T1 sequence (P07607 whole entry): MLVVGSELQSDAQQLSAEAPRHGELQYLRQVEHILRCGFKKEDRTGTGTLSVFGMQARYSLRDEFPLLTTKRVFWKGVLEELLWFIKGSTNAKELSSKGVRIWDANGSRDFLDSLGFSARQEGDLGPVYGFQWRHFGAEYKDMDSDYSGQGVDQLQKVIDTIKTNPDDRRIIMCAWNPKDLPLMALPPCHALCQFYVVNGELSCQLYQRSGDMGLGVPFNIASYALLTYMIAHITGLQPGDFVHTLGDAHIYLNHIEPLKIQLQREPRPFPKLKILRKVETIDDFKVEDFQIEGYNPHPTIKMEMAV
Protocol: A roughly refined fraction of TS was prepared from Meth A fibrosarcoma cells serially cultivated in vitro. For culturing the cells, Eagle's minimum essential medium containing 10% (v/v) bovine fetal serum [MEM; Nissui Pharmaceutical Co. Ltd.] was used. The cells in logarithmic growth were recovered and washed twice with a physiological aqueous saline solution buffered with phosphate, which was then suspended in 0.2M sucrose, 0.01M Tris.HCl buffer solution (pH 7.5). The cells were destroyed by ultrasonic wave, and the suspension was subjected to centrifugation (100,000×g), then the supernatant was collected. Using bovine γ-groblin as the standard protein, the protein concentration was measured by using a protein.dye reagent (Bio-Rad), so that the protein concentration was adjusted to 10 mg/ml.
Enzymic reaction was conducted by partially modifying the method described in Biochemistry 5, 3546 (1966). The composition of the reaction medium was as follows; 0.058% (v/v) formaldehyde, 6.78 mM sodium fluoride, 0.2 mM 2-mercapto ethanol, 6.24 mg/ml bovine serum albumin, 80 μM 2'-deoxyuridine-5'-1 phosphoric acid (dUMP), 80 μM tetrahydrofolic acid, 2 mg/ml roughly refined TS fraction and 0.173M Tris.HCl buffer solution (pH 7.5). To the reaction medium were added the compounds of various concentrations obtained in Working Examples. 540 KBg of [^3 H] dUMP relative to 50 μl of the ultimate reaction medium was added, and the reaction was allowed to proceed for 1 hour at 37° C. in a 96-microwell plate. After completion of the reaction, 26.65% trichloroacetic acid and 3.33 mg/ml dUMP were added to suspend the reaction. To the reaction mixture was added 220 μl of 11.4 mg/ml activated charcoal. The whole mixture was subjected to centrifugation, and the radioactivity in 100 μl of the supernatant was measured by liquid scintillation counter to determine the concentration required for 50% inhibiting the TS activity (ICa50), as shown in Table 1.

[2] = target: T2, 5-aminoimidazole-4-carboxyamide ribonucleotide transformylase (AICARTF) (Homo sapiens, UniProt P31939); test: Measurement of AICARTF inhibiting action; format: biochemical; conditions: AICARTF prepared from CCRF-CEM human lymphoblast leukemia cells; absorbance at 298 nm for 15 minutes; read-out: IC50 AICARTF (concentration required for 50% inhibiting the activity of AICARTF)
T2 construct: AICARTF was prepared from CCRF-CEM human lymphoblast leukemia cells; endogenous in cells; host or cells: CCRF-CEM human lymphoblast leukemia cells
T2 sequence (P31939 whole entry): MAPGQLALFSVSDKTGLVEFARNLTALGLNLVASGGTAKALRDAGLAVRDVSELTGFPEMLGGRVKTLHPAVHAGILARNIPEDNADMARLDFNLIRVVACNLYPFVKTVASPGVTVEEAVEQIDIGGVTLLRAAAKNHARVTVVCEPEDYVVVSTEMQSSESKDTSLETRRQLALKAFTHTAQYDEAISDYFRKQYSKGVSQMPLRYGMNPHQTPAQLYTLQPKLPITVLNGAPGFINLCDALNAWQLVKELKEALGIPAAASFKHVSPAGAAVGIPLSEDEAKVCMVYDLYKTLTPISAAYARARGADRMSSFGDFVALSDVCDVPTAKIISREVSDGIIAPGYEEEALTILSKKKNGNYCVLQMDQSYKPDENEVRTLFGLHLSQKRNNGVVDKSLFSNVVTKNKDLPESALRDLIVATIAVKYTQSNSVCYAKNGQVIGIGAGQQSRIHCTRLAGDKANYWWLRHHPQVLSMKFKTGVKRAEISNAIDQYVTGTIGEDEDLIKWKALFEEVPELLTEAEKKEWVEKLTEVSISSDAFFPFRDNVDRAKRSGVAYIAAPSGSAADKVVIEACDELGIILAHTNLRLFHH
Protocol: AICARTF was prepared from CCRF-CEM human lymphoblast leukemia cells by partially modifying the method described in Biochemistry 20 337 (1981), S. J. Benkovic, et al.
The enzymic reaction was conducted by adding the compounds of various concentrations in Working Examples to 0.95 ml of a solution consisting of a […] Tris.HCl buffer solution (pH 7.4), 5 μM 2-mercaptoethanol,25 μM potassium chloride, 0.1 μM (-)-10-formyl tetrahydrofolic acid and AICARTF, and, before starting the reaction, 0.05 ml of 1 mM 5-aminoimidazole-4-carboxylamide ribonucleotide.
The UV spectrum was measured at 298 nm for 15 minutes at the interval of 15 seconds to evaluate by the increase of absorbance due to the production of tetrahydrofolic acid to determine the concentration required for 50% inhibiting the activity of AICARTF (IC50).

[3] = test system: Meth A fibrosarcoma (Meth A) cells; test: Inhibiting action against growth of Meth A fibrosarcoma cells in vitro; format: cell-based; conditions: 72 hours culture, Coulter counter, read-out: IC50 (concentration required for decreasing the number of cells in the untreated control group by 50%)
Protocol: Meth A cells (2×10^4 /ml) prepared by a conventional method were inoculated into each well of the 12-microwell plate (2.0 ml in a well), and subjected to standing culture at 37° C. under 5% CO2. The compounds obtained in Working Examples dissolved at appropriate concentrations were diluted to 2-10 times stepwise with an MEM (Nissui Pharmaceutical Co., Ltd.) solution, to and the resulting dilutions were added to the culture medium. The medium was again subjected to standing culture at 37° C. under 5% CO2 for 72 hours. Then, the total number of cells at each concentration was measured by Coulter counter (Coulter Electronic, Florida in U.S.A.), and the average value of the cells in three wells was expressed by the number of cells per milliliter.
The concentrations of the respective compounds required for decreasing the number of cells in the untreated control group by 50% was made IC50 of the respective compounds.

IC50 [1] [µM]	IC50 [2] [µM]	SMILES	IC50 [3] [µM]
36	9	Nc1nc(N)c2c(CCCc3ccc(C(=O)N[C@@H](CCC(=O)N[C@@H](CCC(=O)O)C(=O)O)C(=O)O)cc3)c[nH]c2n1 [Ex. 6, [N-[4-[3-(2,4-diamino-7H-pyrrolo[2,3-d]pyrimidin-5-yl)propyl]benzoyl]-γ-L-glutamyl]-L-glutamic acid]	0.61
20	0.2	Nc1nc(N)c2c(CCCc3ccc(C(=O)N[C@@H](CCC(=O)N[C@@H](CCC(=O)N[C@@H](CCC(=O)N[C@@H](CCC(=O)N[C@@H](CCC(=O)N[C@@H](CCC(=O)O)C(=O)O)C(=O)O)C(=O)O)C(=O)O)C(=O)O)C(=O)O)cc3)c[nH]c2n1 [Ex. 10, [N-[4-[3-(2,4-diamino-7H-pyrrolo[2,3-d]pyrimidin-5-yl)propyl]benzoyl]-γ-L-glutamyl]-γ-L-glutamyl-γ-L-glutamyl-γ-L-glutamyl-γ-L-glutamyl-L-glutamic acid]	
20	0.4	Nc1nc(N)c2c(CCCc3ccc(C(=O)N[C@@H](CCC(=O)N[C@@H](CCC(=O)N[C@@H](CCC(=O)N[C@@H](CCC(=O)N[C@@H](CCC(=O)O)C(=O)O)C(=O)O)C(=O)O)C(=O)O)C(=O)O)cc3)c[nH]c2n1 [Ex. 9, [N-[4-[3-(2,4-diamino-7H-pyrrolo[2,3-d]pyrimidin-5-yl)propyl]benzoyl]-γ-L-glutamyl]-γ-L-glutamyl-γ-L-glutamyl-γ-L-glutamyl-L-glutamic acid]	

Second part, the molecule before the results:

SMILES	IC50 [1] [µM]	IC50 [2] [µM]	IC50 [3] [µM]
Nc1nc(N)c2c(CCCc3ccc(C(=O)N[C@@H](CCC(=O)N[C@@H](CCC(=O)N[C@@H](CCC(=O)O)C(=O)O)C(=O)O)C(=O)O)cc3)c[nH]c2n1 [Ex. 7, [N-[4-[3-(2,4-diamino-7H-pyrrolo[2,3-d]pyrimidin-5-yl)propyl]benzoyl]-γ-L-glutamyl]-γ-L-glutamyl-L-glutamic acid]	40	6	0.58
Nc1nc(N)c2c(CCCc3ccc(C(=O)N[C@@H](CCC(=O)N[C@@H](CCC(=O)N[C@@H](CCC(=O)O)C(=O)O)C(=O)O)C(=O)O)cc3)c[nH]c2n1 [Ex. 8, [N-[4-[3-(2,4-diamino-7H-pyrrolo[2,3-d]pyrimidin-5-yl)propyl]benzoyl]-γ-L-glutamyl]-γ-L-glutamyl-γ-L-glutamic acid]	21	0.6	
